Measurements taken from the supplement of paper PMC10307832.

Key:
Assay in all cases: relative viability (nuclei count vs DMSO), 5 days (fraction); higher = more cells survive
[1] = compound: CCN1CCN(c2ccc(Nc3cc(N(C)C(=O)Nc4c(Cl)c(OC)cc(OC)c4Cl)ncn3)cc2)CC1 [BGJ398] + CC(=O)c1c(C)c2cnc(Nc3ccc(N4CCNCC4)cn3)nc2n(C2CCCC2)c1=O [Palbociclib] (partner 0.5 µM)
Procedure, shortened: (§1)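 After 5 days of treatment, lung cancer cells in 1536-well plates were fixed and stained in a single step (final 0.05% Triton X-100, 1% formaldehyde, 1 ug/ml Hoechst) and their nuclei counted on 4× images. Treatment had been applied by pin tool the day after seeding as one drug alone or as a fixed anchor-drug dose with five library-drug doses (not always all listed) in √10 steps. Relative viability is the nuclei count of treated wells divided by that of vehicle wells, and values are medians of duplicate plates.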

[2] = compound: C1=CC2=NC=CN=C2C=C1/C=C/3\C(=O)NC(=O)S3 + C[C@]1(O)C[C@@H](c2nc(-c3ccc4ccc(-c5ccccc5)nc4c3)c3c(N)nccn32)C1 [Linsitinib] (partner 1 µM)
Procedure, shortened: as §1

[3] = compound: C1=CC2=NC=CN=C2C=C1/C=C/3\C(=O)NC(=O)S3 + CC(C)C[C@H](NC(=O)[C@H](Cc1ccccc1)NC(=O)c1cnccn1)B(O)O [Bortezomib] (partner 0.002 µM)
Procedure, shortened: as §1

[4] = compound: CCN1CCN(c2ccc(Nc3cc(N(C)C(=O)Nc4c(Cl)c(OC)cc(OC)c4Cl)ncn3)cc2)CC1 [BGJ398] + Cc1nc(Nc2ncc(C(=O)Nc3c(C)cccc3Cl)s2)cc(N2CCN(CCO)CC2)n1 [Dasatinib] (partner 0.075 µM)
Procedure, shortened: as §1

Cell Line	relative viability ([1]; first compound 0.01 µM)	relative viability ([1]; first compound 0.03162 µM)	relative viability ([1]; first compound 0.1 µM)	relative viability ([1]; first compound 0.3162 µM)	relative viability ([1]; first compound 1 µM)	relative viability ([2]; first compound 0.02 µM)	relative viability ([2]; first compound 0.06325 µM)	relative viability ([2]; first compound 0.2 µM)	relative viability ([2]; first compound 0.6325 µM)	relative viability ([2]; first compound 2 µM)	relative viability ([3]; first compound 0.02 µM)	relative viability ([3]; first compound 0.06325 µM)	relative viability ([3]; first compound 0.2 µM)	relative viability ([3]; first compound 0.6325 µM)	relative viability ([3]; first compound 2 µM)	relative viability ([4]; first compound 0.01 µM)	relative viability ([4]; first compound 0.03162 µM)	relative viability ([4]; first compound 0.1 µM)	relative viability ([4]; first compound 0.3162 µM)	relative viability ([4]; first compound 1 µM)
201T	0.387	0.358	0.356	0.349	0.268	0.807	1.07	0.997	0.949	1.01	0.979	1.1	1.1	1.08	1.03	0.582	0.557	0.5	0.566	0.514
A549						0.648	0.682	0.627	0.546	0.6										
Calu-6						0.946	1.13	1.05	0.899	0.876	1.03	1.1	1.22	1.1	0.98					
ChaGo-K-1	0.914	0.959	0.944	0.962	0.923						1.05	1.65	1.16	0.952	0.868	0.598	0.582	0.613	0.545	0.627
EBC-1						0.88	1.22	0.922	0.953	0.925	0.538	0.648	0.587	0.546	0.816					
HCC-44	0.919	0.962	1.03	1.02	0.856	0.691	0.628	0.675	0.607	0.674	0.818	0.958	0.869	0.883	0.71					
IA-LM						0.516	0.729	0.607	0.606	0.694	0.654	0.918	0.865	0.788	0.728					
LK-2	0.638	0.862	0.489	0.336	0.191	0.68	0.523	0.69	0.644	0.516						0.286	0.248	0.163	0.203	0.179
NCI-H358	0.139	0.145	0.133	0.13	0.145	0.776	0.764	0.754	0.647	0.74						0.145	0.154	0.135	0.169	0.205
NCI-H522	1.13	1.07	1.06	0.932	0.859											0.641	0.837	0.785	0.779	0.76
NCI-H596						1.01	0.994	1.11	0.975	1.07	1.36	1.06	1.17	0.876		0.515	0.49	0.576	0.506	0.474
NCI-H1299						0.841	1.1	0.985	0.919	0.927	1.04	1.04	1.04	1.03	1.06					
NCI-H1395	0.603	0.587	0.464	0.458	0.481	1.37	1.28	1.25	0.939	1.14						0.41	0.397	0.363	0.379	0.313
NCI-H1563						1.19	1.23	1.12	1.1	1.3	0.828	0.788	0.871	0.753	0.715	0.461	0.491	0.432	0.391	0.329
NCI-H1623																0.586	0.525	0.564	0.525	0.478
NCI-H1648	0.266		0.256	0.273	0.227															
NCI-H1650	0.298	0.375	0.28	0.182	0.249						0.207	0.173	0.219	0.201	0.213	0.31		0.205	0.163	0.17
NCI-H1703						1.04	1.13	1.1	0.696	0.741	0.288	0.322	0.38	0.474	0.489					
NCI-H1793	0.321	0.271	0.286	0.237	0.309	0.785	0.99	0.747	0.919	0.679						0.286	0.398	0.403	0.316	0.276
NCI-H1944	0.29	0.333	0.347	0.337	0.344	1.18	1.22	1.22	0.944	1.12						0.166	0.21	0.23	0.198	0.203
NCI-H2170	0.426	0.389	0.416	0.427	0.39											0.527	0.427	0.562	0.545	0.558
NCI-H2342	0.523	0.529	0.513	0.666	0.611											0.321	0.33	0.334	0.318	0.295
SK-MES-1	0.324	0.328	0.303	0.331	0.308	1.04	1.25	1.09	0.95	1.04						0.421	0.33	0.433	0.426	0.418
SW 900	0.52	0.528	0.534	0.453	0.528											0.448	0.388	0.352	0.383	0.232
